Patent publication US20240197742A1, “Therapeutic Combinations of a CD19 Inhibitor and a BTK Inhibitor” (Acerta Pharma B.V., priority 2015, published 2024)
“Also recorded” adds a separate entry of the source.

Assays:
CYP3A4 = CYP3A4 (Homo sapiens, UniProt P08684); assay: Loss of parent drug as catalyzed by CYPs; format: in vitro ADME; conditions: in vitro
Source text: (§1) No unique human metabolite was identified. Preliminary evaluations of metabolism in the plasma, bile, and urine of rats, dogs, and monkeys indicated metabolic processes of oxidation, glutathione binding, and hydrolysis.

[1] = Glutathione binding and depletion in vitro; format: in vitro ADME
Source text: as §1

CYP enzymes = assay: Nonclinical CYP interaction studies; format: in vitro ADME
Source text: as §1

NSCLC (KrasLA2) = assay: KrasLA2 non-small cell lung cancer model; format: in vivo, mice; conditions: dosing of 15 mg/kg
Source text: The model is designed to have sporadic expression in single cells of G12D mutant Kras off its own promoter triggered by spontaneous intrachromosomal recombination. Johnson, et al. Nature 2001, 410, 1111-16. While the mutant Kras protein is expressed in a few cells in all tissues, tumor development is seen only in the lung at high penetrance.

BTK = molecular target: T1, BTK (Mus musculus, UniProt P35991); assay: Molecular probe assay of irreversible BTK occupancy in MDSCs; format: in vivo; conditions: tumor bearing PDA mice, 15 mg/kg BID; Day 8 at 4 hours post dose (N=5)
T1 construct: MDSCs were purified from tumor bearing PDA mice; from tissue; host or cells: granulocytic and monocytic MDSCs from tumor-bearing PDA mice dosed in vivo

NK cells [2] = assay: Antibody-dependent NK cell-mediated IFN-γ release (ELISA); format: cell-based, human; conditions: 1 μM; trastuzumab-coated (10 μg/mL) HER18, 4 hours
Procedure: Cytokine secretion was determined as follows. […] NK cells from healthy donors were enriched as described above and then added to the target cells and incubated for 4 hours at 37° C. Triplicate cultures were performed on NK cells from donors. After incubation, supernatants were harvested, centrifuged briefly, and then analyzed for interferon-γ using an enzyme-linked immunosorbent assay (ELISA) (R&D Systems, Minneapolis, MN, USA).

NK cells [3] = assay: Antibody-dependent NK cell-mediated degranulation (CD107a); format: cell-based, human
Procedure: Lytic granule release was determined as follows. NK cells from healthy donors were enriched and cultured in the presence of target cells, monoclonal antibodies and test articles as described above. After 4 hours, the cultures were harvested and cells were pelleted, washed, and then stained for flow cytometry evaluation. Degranulation was evaluated via by flow cytometery by externalization of CD107a, a protein normally present on the inner leaflet of lytic granules, and gating on NK cells (CD3-CD16^+ lymphocytes). The percentage of CD107α positive NK cells was quantified by comparison with a negative control (isotype control, unstained cells/FMO). Control cultures (NK cells cultured without target cells, or NK, target cell co-cultures in the absence of appropriate monoclonal antibody) were also evaluated; all experiments were performed in triplicate.

primary CLL cells = assay: ADCC chromium release assay, primary CLL targets; format: cell-based, human; conditions: 1 μM; E:T 25:1; variable rituximab concentrations
Procedure: All in vitro experiments were performed in triplicate.
ADCC assays were performed as follows. Briefly, target cells (Raji or primary CLL) were labeled by incubation at 37° C. with 100 μCi ^51Cr for 4 hours prior to co-culture with NK cells. Cells were washed, enumerated, and then added in triplicate to prepared 96-well plates containing treated NK cells at an effector:target (E:T) ratio of 25:1. […] Cultures were incubated at 37° C. for 4 hours, and then centrifuged. Supernatants were harvested and ^51Cr release was measured by liquid scintillation counting. All experiments were performed in triplicate.

Th17 cells = assay: Th17 development from enriched CD4+ T cells; format: cell-based; conditions: anti-TCRβ plus anti-CD28, skewing cytokines, 4 days
Procedure: (§2) Enriched CD4^+ T cells are plated on 24-well culture dishes that have been precoated 2 hr with 250 μL anti-TCRβ (0.5 μg/mL) plus anti-CD28 (5 μg/mL) at 37° C. in PBS. The cells are then supplemented with media containing BTK inhibitors along with the skewing cytokines as indicated in the following. The Th17 and Treg cultures are grown for 4 days before analysis. The cells are maintained for an additional 3 days with skewing cytokines (Th17; 20 ng/mL IL-6, 0.5 ng/mL TGF-β, 5 μg/mL IL-4, 5 μg/mL IFN-γ and Treg; 0.5 ng/mL TGF-β, 5 μg/mL IL-4, 5 μg/mL IFN-γ) and are supplemented with IL2 as a growth factor.

regulatory T cell (Treg) = assay: Treg development from enriched CD4+ T cells; format: cell-based; conditions: anti-TCRβ plus anti-CD28, skewing cytokines, 4 days
Procedure: as §2

CD8+ T cells [4] = assay: CD8+ T cell viability; format: cell-based; conditions: anti-TCR and anti-CD28 coated wells, neutral conditions, 4 days
Procedure: Total T cells were plated on anti-TCR and anti-CD28 coated wells in the presence of both BTK inhibitors. Neutral culture conditions were used that will not polarize T cells to a helper lineage. […] Statistical significance was calculated using the Mann Whitney T-test.

CD8+ T cells [5] = assay: Cytotoxic T cell (CTL) assay; format: cell-based; conditions: 500 nM, relative to vehicle
Procedure: Without being bound by any theory, CD8^+ T cells have two primary effector functions: (1) produce large amounts of IFN-γ (which activates macrophages), and (2) cytolytic activity. […] The targets were B lymphoblasts from lipopolysaccharide (LPS) treated cultures. The assay was performed by incubating different ratios of effectors:targets for 4 hours.

human platelets = assay: Laser injury thrombus formation in VWF HA1 mice infused with human platelets; conditions: 0.1 μM, 0.5 μM, or 1 μM
Procedure: Injury to the vessel wall of arterioles ([…] diameter) was performed using a pulsed nitrogen dye laser (440 nm, Photonic Instruments) applied through a 20× water-immersion Olympus objective (LUMPlanF1, 0.5 numerical aperture (NA)) of a Zeiss Axiotech vario microscope. […] The extent of thrombus formation was assessed for 2 minutes after injury and the area (μm^2) of coverage determined (Image IQ, Andor Technology).
The BTK inhibitor-treated human platelets were fluorescently labeled and infused continuously through a catheter inserted into the femoral artery.

GPVI = GPVI platelet aggregation (convulxin); format: cell-based, human
Procedure: GPVI platelet aggregation was measured for Formula (2) and Formula (10) (ibrutinib). Blood was obtained from untreated humans, and platelets were purified from […] by centrifugation. Cells were resuspended to a final concentration of 350,000/μL in buffer containing 145 mmol/L NaCl, 10 mmol/L HEPES, 0.5 mmol/L Na2HPO4, 5 mmol/L KCl, 2 mmol/L MgCl2, 1 mmol/L CaCl2, and 0.1% glucose, at pH 7.4. Stock solutions of Convulxin (CVX) GPVI were prepared on the day of experimentation and added to platelet suspensions 5 minutes (37° C., 1200 rpm) before the induction of aggregation. Aggregation was assessed with a Chronolog Lumi-Aggregometer (model 540 VS; Chronolog, Havertown, PA) and permitted to proceed for 6 minutes after the addition of agonist. The results are reported as maximum percent change in light transmittance from baseline with platelet buffer used as a reference.
In FIG. 72, the results of CVX-induced (250 ng/mL) human platelet aggregation results before and 15 minutes after administration of the BTK inhibitors to 6 healthy individuals are shown.

T1 sequence (P35991 whole entry): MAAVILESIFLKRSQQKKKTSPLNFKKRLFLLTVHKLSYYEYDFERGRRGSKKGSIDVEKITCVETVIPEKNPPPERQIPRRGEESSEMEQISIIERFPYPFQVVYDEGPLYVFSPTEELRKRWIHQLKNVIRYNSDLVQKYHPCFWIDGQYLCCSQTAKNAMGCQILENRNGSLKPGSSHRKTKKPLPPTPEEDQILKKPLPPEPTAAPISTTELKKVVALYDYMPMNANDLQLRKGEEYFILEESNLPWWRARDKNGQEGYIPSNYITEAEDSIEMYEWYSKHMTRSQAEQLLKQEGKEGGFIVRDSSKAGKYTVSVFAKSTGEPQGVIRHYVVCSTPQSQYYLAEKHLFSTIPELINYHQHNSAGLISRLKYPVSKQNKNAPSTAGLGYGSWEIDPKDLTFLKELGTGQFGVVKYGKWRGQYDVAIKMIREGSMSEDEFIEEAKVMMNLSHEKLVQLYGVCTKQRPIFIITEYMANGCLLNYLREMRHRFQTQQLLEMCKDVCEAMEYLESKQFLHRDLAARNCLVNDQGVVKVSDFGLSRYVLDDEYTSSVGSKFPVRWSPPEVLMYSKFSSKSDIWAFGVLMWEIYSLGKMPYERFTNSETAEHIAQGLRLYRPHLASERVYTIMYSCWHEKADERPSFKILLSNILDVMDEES
Sequence of CYP3A4 (P08684 whole entry): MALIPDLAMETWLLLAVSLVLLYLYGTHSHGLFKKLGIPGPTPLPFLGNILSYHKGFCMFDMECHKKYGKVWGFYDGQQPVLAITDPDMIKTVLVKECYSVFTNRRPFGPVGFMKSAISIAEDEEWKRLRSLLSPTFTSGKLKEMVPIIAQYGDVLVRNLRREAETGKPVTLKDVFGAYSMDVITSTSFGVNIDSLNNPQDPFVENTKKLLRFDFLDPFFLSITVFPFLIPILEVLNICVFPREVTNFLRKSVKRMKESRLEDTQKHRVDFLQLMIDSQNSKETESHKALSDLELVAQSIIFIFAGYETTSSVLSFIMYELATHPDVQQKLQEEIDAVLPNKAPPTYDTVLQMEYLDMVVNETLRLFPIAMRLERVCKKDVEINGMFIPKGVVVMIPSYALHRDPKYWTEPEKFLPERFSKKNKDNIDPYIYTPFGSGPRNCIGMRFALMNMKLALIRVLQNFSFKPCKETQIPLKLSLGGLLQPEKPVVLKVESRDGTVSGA

CC#CC(=O)N1CCC[C@H]1c1nc(-c2ccc(C(=O)Nc3ccccn3)cc2)c2c(N)nccn12 [Formula (2), (S)-4-(8-amino-3-(1-(but-2-ynoyl)pyrrolidin-2-yl)imidazo[1,5-α]pyrazin-1-yl)-N-(pyridin-2-yl)benzamide]
metabolism by CYPs (CYP3A4): metabolized by CYP3A4
glutathione binding and depletion [1]: binds to glutathione but does not deplete glutathione
drug-drug interaction potential through CYP enzymes (CYP enzymes): very unlikely to cause clinical drug-drug interactions
immunosuppressive tumor associated MDSCs (NSCLC (KrasLA2)): significant reduction
immunosuppressive tumor associated TAMs (NSCLC (KrasLA2)): significant reduction
immunosuppressive tumor associated Tregs (NSCLC (KrasLA2)): significant reduction
number of tumors (NSCLC (KrasLA2)): fewer overall tumors
tumor volumes versus vehicle (microCT) (NSCLC (KrasLA2)): significant decrease
BTK occupancy in granulocytic and monocytic MDSC compartments (BTK): Complete
inhibition of trastuzumab-stimulated NK cell cytokine release (NK cells [2]): no inhibitory effect
inhibition of trastuzumab-stimulated NK cell degranulation (NK cells [3]; 1 μM, trastuzumab-coated (10 μg/mL) HER18, 4 hours): no inhibitory effect
reduction of rituximab-stimulated NK cell degranulation (NK cells [3]; rituximab-coated (10 μg/mL) DHL-4, 4 hours): < 2%
effect on rituximab-mediated ADCC, primary CLL / autologous tumor cells (primary CLL cells): not inhibited
effect on Th17 cells / Th17 development (Th17 cells): no adverse effect
effect on Treg development (regulatory T cell (Treg)): no adverse effect
effect on CD8+ T cell viability (CD8+ T cells [4]): not observed; also recorded: no effect
CD8+ T cell function as measured by % cytotoxicity (CD8+ T cells [5]; 4 days CTL generation): no effect
CD8+ T cell function as measured by IFN-γ level (CD8+ T cells [5]): no effect
effect on human platelet-mediated thrombus formation (human platelets): does not interfere with thrombus formation; also recorded: no significant effect
effect on GPVI platelet aggregation (GPVI; CVX-induced human platelet aggregation): does not
IC50 (GPVI; purified human platelets, convulxin (CVX)): 1150 nM
